Measurements reported in US20230117034A1, “PYRAZOLOTRIAZINES” (Bayer Aktiengesellschaft, priority 2019, published 2023).

Columns and labels:
[1] = test system: CAL-120, human breast adenocarcinoma cells; assay: Proliferation assay CAL-120 (crystal violet, 4 days); format: cell-based; settings: Homo sapiens, CAL-120, 96 h, CAL-120 cells, median, read-out: Prolif-CAL-120, IC50-[mol/l] (median)
Protocol: (§1) Human tumour cells were originally obtained from the American Type Culture Collection (ATCC), or from the Deutsche Sammlung von Mikroorganismen und Zellkulturen (DSMZ, German Collection of Microorganisms and Cell Cultures). Cultivated tumour cells (CAL-120, human breast adenocarcinoma cells, DSMZ ACC-459; MDA-MB-231, human breast cancer cells, ATCC HTB-26) were plated at a density of 4,000 cells/well in a 96-well multititer plate in 200 microL of their respective growth medium supplemented 10% fetal calf serum. After 24 hours, the cells of one plate (zero-point plate) were stained with crystal violet (see below), while the medium of the other plates was supplemented with the test substances in various concentrations (0 micromol/L, as well as in the range of 0.01-10 micromol/L; the final concentration of the solvent dimethyl sulfoxide was adjusted to 0.1%) using a Tecan HP D300 Digital Dispenser. The cells were incubated for 4 days in the presence of test substances. Cell proliferation was determined by staining the cells with crystal violet: the cells were fixed by adding 20 microL/measuring point of an 11% glutaric aldehyde solution for 15 minutes at room temperature. After three washing cycles of the fixed cells with water, the plates were dried at room temperature. The cells were stained by adding 100 microL/measuring point of a 0.1% crystal violet solution (pH 3.0). After three washing cycles of the stained cells with water, the plates were dried at room temperature. The dye was dissolved by adding 100 microL/measuring point of a 10% acetic acid solution. The extinction was determined by photometry at a wavelength of 595 nm. The change of cell number, in percent, was calculated by normalization of the measured values to the extinction values of the zero-point plate (=0%) and the extinction of the untreated (0 μM) cells (=100%). The IC50 values (inhibitory concentration at 50% of maximal effect) were determined by means of a 4 parameter fit.

[2] = test system: MDA-MB-231, human breast cancer cells; assay: Proliferation assay MDA-MB-231 (crystal violet, 4 days); format: cell-based; settings: Homo sapiens, MDA-MB-231, 96 h, MDA-MB-231 cells, median, read-out: Prolif-MDA MB-231, IC50-[mol/l] (median)
Protocol: as §1

[3] = test system: BRCA1 mRNA expression in MDA-MB-231 cells; assay: qRT-PCR assay: BRCA1 mRNA expression in MDA-MB-231; format: cell-based, human; settings: Homo sapiens, MDA-MB-231, Inhibition of BRCA1 mRNA expression in MDA-MB-231 cells; median; read-out: RTqPCR-MDA-MB-231, IC50, BRCA1 (median)
Protocol: 3. qRT-PCR Assay: BRCA, ATR, MCL1 in MDA-MB-231, CAL-120
Tissue cultured human MDA-MB-231 human breast cancer cells were plated in 500 microL per well at 200,000 cells/well in a 24 well microtiter plate. After 24 h, the cells were exposed continuously for 24 h to test substances (substances were added with Tecan HP 0300 Dispenser). RNA was prepared using Qiagen RNeasy MiniKit (#74106), RNA was quantified using a NanoDrop Equipment, and 600 nano gamms of RNA was coverted to cDNA using a SuperScript VILO kit (Thermofisher #11755050) followed by qPCR amplification. BRCA1 and ATR gene expression was measured by RT-qPCR and normalised to GAPDH housekeeping gene expression. qPCR primer sets have been purchased from Thermo Fisher Scientific/Applied Biosystems: BRCA1, #Hs 01556193; ATR, #Hs 00992123; GAPDH, #Hs 03929097.

[4] = molecular target: T1, CYCLIN K (nuclear staining in CAL-120 cells) (Homo sapiens, UniProt O75909); assay: CYCLIN K nuclear protein level: immunofluorescence high content analysis (CAL-120); format: cell-based; settings: 24 h, 50% reduction of nuclear CCNK staining intensity, median, read-out: CYCLIN K degradation IF, DC50-[mol/l] (median)
T1 construct: endogenous in cells; host or cells: CAL-120 human breast cancer cells (DSMZ ACC 459)
Protocol: 8. CYCLIN K nuclear protein level: immunofluorescence High Content Analysis
CAL-120 human breast cancer cells (DSMZ ACC 459) are seeded in 1536-well microtiter plates (800 cells per well) containing 50 nanoL of compounds in Dose-Response. Control wells received DMSO or Example 4. Plates are then incubated for 24 h at 37° C. in an humidified incubator and fixed with 4% PFA for 10 min. Then immunofluorescence (IF) against CYCLIN K (ThermoFisher Scientific CONK Antibody #PA5-85020, rabbit, 1:200 dilution) is performed using standard IF protocols. Cells are then stained with Hoechst 33342 (Life Technologies, H-1399, 0.1 microg/ml) and imaged on an automated confocal microscopy system (e.g. Perkin Elmer Opera Phenix). Nuclear and cytoplasmic intensity as well as the nuclear/cytoplasmic intensity ratio is determined by automated image analysis using custom generated scripts (MetaXpress). Data is then transferred to Genedata Screener software, normalized to DMSO and control and DC50 values (degrading concentration to achieve 50% reduction of nuclear CCNK staining intensity relative to controls) are reported.

T1 sequence (O75909 whole entry): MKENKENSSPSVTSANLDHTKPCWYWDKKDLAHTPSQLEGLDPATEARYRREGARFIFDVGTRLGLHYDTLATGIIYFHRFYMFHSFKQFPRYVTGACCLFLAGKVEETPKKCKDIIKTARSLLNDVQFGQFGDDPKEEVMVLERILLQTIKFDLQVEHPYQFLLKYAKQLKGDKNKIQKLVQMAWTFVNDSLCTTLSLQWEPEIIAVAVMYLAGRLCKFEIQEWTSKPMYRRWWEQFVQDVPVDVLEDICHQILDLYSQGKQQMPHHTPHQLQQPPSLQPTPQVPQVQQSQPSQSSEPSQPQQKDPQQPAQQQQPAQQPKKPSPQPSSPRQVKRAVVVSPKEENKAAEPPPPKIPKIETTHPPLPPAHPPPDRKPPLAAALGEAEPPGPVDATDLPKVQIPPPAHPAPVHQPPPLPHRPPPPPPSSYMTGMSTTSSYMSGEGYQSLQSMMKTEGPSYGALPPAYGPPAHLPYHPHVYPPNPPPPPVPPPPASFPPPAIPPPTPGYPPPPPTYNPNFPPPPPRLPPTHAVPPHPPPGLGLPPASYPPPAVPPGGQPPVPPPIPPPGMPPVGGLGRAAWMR
T1 sequence (Q9NYV4 whole entry partner): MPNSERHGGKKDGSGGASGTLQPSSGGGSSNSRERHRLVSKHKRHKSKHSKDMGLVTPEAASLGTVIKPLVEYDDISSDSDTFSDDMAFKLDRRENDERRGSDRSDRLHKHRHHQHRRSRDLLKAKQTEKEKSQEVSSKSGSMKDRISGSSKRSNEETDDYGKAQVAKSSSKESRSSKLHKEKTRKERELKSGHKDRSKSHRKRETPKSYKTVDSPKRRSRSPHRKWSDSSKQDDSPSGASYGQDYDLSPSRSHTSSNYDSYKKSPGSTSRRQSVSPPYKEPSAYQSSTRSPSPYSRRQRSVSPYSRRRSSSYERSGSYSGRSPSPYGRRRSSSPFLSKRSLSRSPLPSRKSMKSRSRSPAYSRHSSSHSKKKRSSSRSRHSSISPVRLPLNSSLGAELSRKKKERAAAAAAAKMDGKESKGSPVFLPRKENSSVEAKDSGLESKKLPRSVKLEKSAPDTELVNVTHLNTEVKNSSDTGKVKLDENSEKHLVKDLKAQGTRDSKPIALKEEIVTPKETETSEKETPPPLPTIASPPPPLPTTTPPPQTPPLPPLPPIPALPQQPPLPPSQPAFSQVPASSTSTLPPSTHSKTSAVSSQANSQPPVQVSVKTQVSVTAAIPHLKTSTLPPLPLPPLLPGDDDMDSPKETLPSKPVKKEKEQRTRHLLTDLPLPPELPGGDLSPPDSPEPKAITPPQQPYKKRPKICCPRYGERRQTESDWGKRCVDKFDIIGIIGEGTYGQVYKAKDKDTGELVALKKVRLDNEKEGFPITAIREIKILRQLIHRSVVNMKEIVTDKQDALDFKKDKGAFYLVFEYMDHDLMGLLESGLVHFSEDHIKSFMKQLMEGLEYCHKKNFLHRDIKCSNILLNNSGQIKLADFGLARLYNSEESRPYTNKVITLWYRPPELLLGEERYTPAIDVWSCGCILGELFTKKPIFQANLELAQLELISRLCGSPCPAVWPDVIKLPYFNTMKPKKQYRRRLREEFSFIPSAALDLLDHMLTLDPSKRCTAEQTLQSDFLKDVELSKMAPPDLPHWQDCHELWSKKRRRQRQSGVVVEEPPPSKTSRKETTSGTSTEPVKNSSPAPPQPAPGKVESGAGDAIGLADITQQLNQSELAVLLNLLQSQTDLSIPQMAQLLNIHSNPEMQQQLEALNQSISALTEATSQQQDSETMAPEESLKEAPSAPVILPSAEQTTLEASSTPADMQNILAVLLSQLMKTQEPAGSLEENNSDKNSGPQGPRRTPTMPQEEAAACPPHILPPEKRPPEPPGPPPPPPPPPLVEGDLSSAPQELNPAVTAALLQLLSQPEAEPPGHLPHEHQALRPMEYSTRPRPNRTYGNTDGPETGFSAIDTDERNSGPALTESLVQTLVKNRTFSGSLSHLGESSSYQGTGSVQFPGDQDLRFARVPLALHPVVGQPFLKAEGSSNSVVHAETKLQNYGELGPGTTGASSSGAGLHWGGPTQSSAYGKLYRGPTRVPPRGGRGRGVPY

Work on `C[C@H]1CN(c2nc(NCc3nnc(-c4cccc(F)c4)[nH]3)n3ncc(Br)c3n2)CCN1C` [Example 154, 8-bromo-2-[(3S)-3,4-dimethylpiperazin-1-yl]-N-{[5-(3-fluorophenyl)-4H-1,2,4-triazol-3-yl]methyl}pyrazolo[1,5-a][1,3,5]triazin-4-amine] yielded an IC50 [1] of 7.69 nM, an IC50 [2] of 26.2 nM and an IC50 [3] of 7.04 nM. For the same compound, the DC50 [4] was 0.713 nM.
With `CN1CCN(c2nc(NCc3nc4c(F)cccc4[nH]3)n3ncc(Br)c3n2)CC1` [Example 126, 8-bromo-N-[(4-fluoro-1H-benzimidazol-2-yl)methyl]-2-(4-methylpiperazin-1-yl)pyrazolo[1,5-a][1,3,5]triazin-4-amine] the IC50 [1] was 11 nM, the IC50 [2] was 13.1 nM and the IC50 [3] was 10.1 nM. For the same compound, the DC50 [4] was 0.142 nM.
`Cc1cccc2[nH]c(CNc3nc(N4CCN(C)CC4)nc4c(Br)cnn34)nc12` [Example 151, 8-bromo-N-[(4-methyl-1H-benzimidazol-2-yl)methyl]-2-(4-methylpiperazin-1-yl)pyrazolo[1,5-a][1,3,5]triazin-4-amine] was tested, and the IC50 [1] was 24.7 nM, the IC50 [2] was 37.2 nM and the IC50 [3] was 18.3 nM. It also gave a DC50 [4] of 2.45 nM.
`Clc1ccc2[nH]c(CNc3nc(N4CCOCC4)nc4c(Br)cnn34)nc2c1` [Example 162, 8-bromo-N-[(5-chloro-1H-benzimidazol-2-yl)methyl]-2-(morpholin-4-yl)pyrazolo[1,5-a][1,3,5]triazin-4-amine] gave an IC50 [1] of 1.55 nM, an IC50 [2] of 4.02 nM and an IC50 [3] of 1.09 nM. For the same compound, the DC50 [4] was 0.112 nM.
For `C[C@H]1CCCCN1c1nc(NCc2nc3ccccc3[nH]2)n2ncc(Br)c2n1` [Example 141, N-[(1H-benzimidazol-2-yl)methyl]-8-bromo-2-[(2S)-2-methylpiperidin-1-yl]pyrazolo[1,5-a][1,3,5]triazin-4-amine], the IC50 [1] was 24.5 nM, the IC50 [2] was 37.8 nM and the IC50 [3] was 16.4 nM. The DC50 [4] was 1.74 nM.
For `CN1CCN(c2nc(NCc3nnc(-c4cccc(F)c4)[nH]3)n3ncc(Br)c3n2)CC1` [Example 136, 8-bromo-N-{[5-(3-fluorophenyl)-4H-1,2,4-triazol-3-yl]methyl}-2-(4-methylpiperazin-1-yl)pyrazolo[1,5-a][1,3,5]triazin-4-amine], the IC50 [1] was 17.1 nM, the IC50 [2] was 26.4 nM and the IC50 [3] was 33.8 nM. For the same compound, the DC50 [4] was 0.464 nM.
`Fc1cccc(-c2nnc(CNc3nc(N4C[C@H]5C[C@@H]4CO5)nc4c(Br)cnn34)[nH]2)c1` [Example 153, 8-bromo-N-{[5-(3-fluorophenyl)-4H-1,2,4-triazol-3-yl]methyl}-2-[(1R,4R)-2-oxa-5-azabicyclo[2.2.1]heptan-5-yl]pyrazolo[1,5-a][1,3,5]triazin-4-amine] showed an IC50 [1] of 5.78 nM, an IC50 [2] of 24.4 nM and an IC50 [3] of 8.2 nM. It also gave a DC50 [4] of 1.42 nM.
`Fc1cccc(-c2nnc(CNc3nc(N4CCNCC4)nc4c(Br)cnn34)[nH]2)c1` [Example 152, 8-bromo-N-{[5-(3-fluorophenyl)-4H-1,2,4-triazol-3-yl]methyl}-2-(piperazin-1-yl)pyrazolo[1,5-a][1,3,5]triazin-4-amine] showed an IC50 [1] of 3.86 nM, an IC50 [2] of 12.7 nM and an IC50 [3] of 4.25 nM. For the same compound, the DC50 [4] was 1.11 nM.
With `CC(C)c1cnn2c(NCc3nc4ccccc4[nH]3)nc(N3CCOC[C@@H]3C)nc12` [Example 6, N-[(1H-benzimidazol-2-yl)methyl]-2-[(3S)-3-methylmorpholin-4-yl]-8-(propan-2-yl)pyrazolo[1,5-a][1,3,5]triazin-4-amine] the IC50 [2] was 16.1 nM, the IC50 [3] was 5.43 nM and the DC50 [4] was 2.36 nM.
For `Clc1ccccc1-c1cnc(CNc2nc(N3CCOCC3)nc3c(Br)cnn23)[nH]1` [Example 96, 8-bromo-N-{[5-(2-chlorophenyl)-1H-imidazol-2-yl]methyl}-2-(morpholin-4-yl)pyrazolo[1,5-a][1,3,5]triazin-4-amine], the IC50 [1] was 30.1 nM, the IC50 [3] was 29.4 nM and the DC50 [4] was 10.7 nM.
Compound `Brc1cnn2c(NCc3nc4ccccc4[nH]3)nc(N3C[C@H]4C[C@@H]3CO4)nc12` [Example 102, N-[(1H-benzimidazol-2-yl)methyl]-8-bromo-2-[(1R,4R)-2-oxa-5-azabicyclo[2.2.1]heptan-5-yl]pyrazolo[1,5-a][1,3,5]triazin-4-amine] has an IC50 [1] of 27 nM, an IC50 [3] of 29.6 nM and a DC50 [4] of 0.517 nM.
Work on `Brc1cnn2c(NCc3nc4ccccc4[nH]3)nc(N3CCOCC3C3CC3)nc12` (centres unmarked) [Example 117, N-(1H-benzimidazol-2-ylmethyl)-8-bromo-2-(3-cyclopropylmorpholin-4-yl)pyrazolo[1,5-a][1,3,5]triazin-4-amine] yielded an IC50 [1] of 23.1 nM, an IC50 [3] of 121 nM and a DC50 [4] of 2.62 nM.
With `C[C@@H]1CN(c2nc(NCc3nc4cc(F)ccc4[nH]3)n3ncc(Br)c3n2)C[C@H](C)O1` [Example 110, 8-bromo-2-[(2R,6S)-2,6-dimethylmorpholin-4-yl]-N-[(5-fluoro-1H-benzimidazol-2-yl)methyl]pyrazolo[1,5-a][1,3,5]triazin-4-amine] the IC50 [1] was 5.03 nM, the IC50 [3] was 7.51 nM and the DC50 [4] was 0.354 nM.
With `CC(C)c1cnn2c(NCc3nc4ccccc4[nH]3)nc(NCC(C)(C)O)nc12` [Example 10, 1-{[4-{[(1H-benzimidazol-2-yl)methyl]amino}-8-(propan-2-yl)pyrazolo[1,5-a][1,3,5]triazin-2-yl]amino}-2-methylpropan-2-ol] the IC50 [2] was 79.9 nM, the IC50 [3] was 25.3 nM and the DC50 [4] was 3.6 nM.
In the case of `Brc1cnn2c(NCc3nc4ccccc4[nH]3)nc(N3C[C@@H]4C[C@H]3CO4)nc12` [Example 103, N-[(1H-benzimidazol-2-yl)methyl]-8-bromo-2-[(1S,4S)-2-oxa-5-azabicyclo[2.2.1]heptan-5-yl]pyrazolo[1,5-a][1,3,5]triazin-4-amine], the IC50 [1] is reported as 46.5 nM, the IC50 [3] is reported as 71.9 nM and the DC50 [4] is reported as 0.765 nM.
With `COc1ccc2[nH]c(CNc3nc(N4C[C@@H](C)O[C@@H](C)C4)nc4c(Br)cnn34)nc2c1` [Example 124, 8-bromo-2-[(2R, 6S)-2,6-dimethylmorpholin-4-yl]-N-[(5-methoxy-1H-benzimidazol-2-yl)methyl]pyrazolo[1,5-a][1,3,5]triazin-4-amine] the IC50 [1] was 6.43 nM, the IC50 [3] was 4.66 nM and the DC50 [4] was 0.142 nM.
Compound `CC1CN(C)CCN1c1nc(NCc2nc3ccccc3[nH]2)n2ncc(Br)c2n1` (centres unmarked) [Example 156, N-(1H-benzimidazol-2-ylmethyl)-8-bromo-2-(2,4-dimethylpiperazin-1-yl)pyrazolo[1,5-a][1,3,5]triazin-4-amine] has an IC50 [1] of 5.45 nM, an IC50 [2] of 20.5 nM and a DC50 [4] of 0.249 nM.
`Fc1ccc(-c2cnn3c(NCc4nc5ccccc5[nH]4)nc(N4CCOCC4)nc23)cc1` [Example 106, N-[(1H-benzimidazol-2-yl)methyl]-8-(4-fluorophenyl)-2-(morpholin-4-yl)pyrazolo[1,5-a][1,3,5]triazin-4-amine] gave an IC50 [1] of 47 nM, an IC50 [3] of 32.2 nM and a DC50 [4] of 2.45 nM.
